Assay [1] deals with Nucleic Acid. Description: Stabilization of TAGGG(TTAGGG)3 G-quadruplex in Tris-HCl buffer at DNA/ligand molar ratio 1 to 4 by CD titration method 100 mM KCl. The format is nucleic-acid assay.
Assay [2] deals with Nucleic Acid. The assay can be described thus: Binding affinity to AGGG(TTAGGG)3 G-quadruplex in Tris-HCl buffer by spectrophotometric titration method in presence of 100 mM KCl. The format is nucleic-acid assay.
The test system of assay [3] is Nucleic Acid. The assay can be described thus: Binding affinity to ds AGGG(TTAGGG)3 in Tris-HCl buffer assessed as melting temperature at DNA/compound molar ratio 1:2 by CD titration method in presence of 100 mM KCl (reference value: 58 degC). The format is nucleic-acid assay.
Assay [4] deals with Nucleic Acid. The assay can be described thus: Binding affinity to biotin-labeled TAGGG(TTAGGG)3 at 1 to 960 nM by SPR analysis in presence of 0.15 mM NaCl. The format is nucleic-acid assay.
Assay [5] has as its target Telomerase reverse transcriptase (Homo sapiens, UniProt O14746). Description: Inhibition of telomerase-mediated primer elongation by gel electrophoresis-based TRAP assay.
The subject of assay [6] is Nucleic Acid. Description: Binding affinity to ds AGGG(TTAGGG)3 in Tris-HCl buffer after 2 hrs by UV-vis spectrophotometric titration method in presence of 100 mM KCl. The format is nucleic-acid assay.
Assay [7] deals with Nucleic Acid. Description: Binding affinity to AGGG(TTAGGG)3 G-quadruplex in Tris-HCl buffer assessed as change in melting temperature at 3 uM by CD titration method in presence of 100 mM KCl. The format is nucleic-acid assay.
For assay [8], the system named is Nucleic Acid. The assay can be described thus: Stabilization of AGGG(TTAGGG)3 G-quadruplex in Tris-HCl buffer at DNA/ligand molar ratio 1 to 4 by CD titration method in presence of 100 mM KCl. The format is nucleic-acid assay.
Assay [9] deals with Nucleic Acid. The assay can be described thus: Binding affinity to TAGGG(TTAGGG)3 G-quadruplex in Tris-HCl buffer by spectrophotometric titration method in presence of 100 mM KCl. The format is nucleic-acid assay.
Assay [10] has as its system Nucleic Acid. Description: Binding affinity to biotin-labeled AGGG(TTAGGG)3 at 1 to 960 nM by SPR analysis in presence of […]. The format is nucleic-acid assay.
Assay [11] deals with Nucleic Acid. Description: Binding affinity to biotin-labeled AGGG(TTAGGG)3 at 1 to 960 nM by SPR analysis in presence of 0.15 mM NaCl. The format is nucleic-acid assay.
Assay [12] deals with Nucleic Acid. The assay can be described thus: Binding affinity to TAGGG(TTAGGG)3 G-quadruplex in Tris-HCl buffer by UV-vis spectrophotometric titration method in presence of 100 mM KCl. The format is nucleic-acid assay.
In assay [13] the test system is Nucleic Acid. The assay can be described thus: Binding affinity to AGGG(TTAGGG)3 G-quadruplex in Tris-HCl buffer by UV-vis spectrophotometric titration method in presence of 100 mM KCl. The format is nucleic-acid assay.
The subject of assay [14] is Nucleic Acid. The assay can be described thus: Binding affinity to biotin-labeled TAGGG(TTAGGG)3 at 1 to 960 nM by SPR analysis in presence of […]. The format is nucleic-acid assay.
Assay [15] concerns Nucleic Acid. The assay can be described thus: Binding affinity to TAGGG(TTAGGG)3 G-quadruplex in Tris-HCl buffer assessed as change in melting temperature at 3 uM by CD titration method in presence of 100 mM KCl. The format is nucleic-acid assay.
The subject of assay [16] is Nucleic Acid. The assay can be described thus: Binding affinity to AGGG(TTAGGG)3 G-quadruplex in Tris-HCl buffer assessed as change in melting temperature at 3 uM by CD titration method in presence of 100 mM NaCl. The format is nucleic-acid assay.
In assay [17] the test system is Nucleic Acid. The assay can be described thus: Binding affinity to TAGGG(TTAGGG)3 G-quadruplex in Tris-HCl buffer assessed as change in melting temperature at 3 uM by CD titration method in presence of 100 mM NaCl. The format is nucleic-acid assay.

Activity calls are given as the source filed them. No cut-off for these calls is given here.

Telomerase reverse transcriptase, sequence (O14746 whole entry): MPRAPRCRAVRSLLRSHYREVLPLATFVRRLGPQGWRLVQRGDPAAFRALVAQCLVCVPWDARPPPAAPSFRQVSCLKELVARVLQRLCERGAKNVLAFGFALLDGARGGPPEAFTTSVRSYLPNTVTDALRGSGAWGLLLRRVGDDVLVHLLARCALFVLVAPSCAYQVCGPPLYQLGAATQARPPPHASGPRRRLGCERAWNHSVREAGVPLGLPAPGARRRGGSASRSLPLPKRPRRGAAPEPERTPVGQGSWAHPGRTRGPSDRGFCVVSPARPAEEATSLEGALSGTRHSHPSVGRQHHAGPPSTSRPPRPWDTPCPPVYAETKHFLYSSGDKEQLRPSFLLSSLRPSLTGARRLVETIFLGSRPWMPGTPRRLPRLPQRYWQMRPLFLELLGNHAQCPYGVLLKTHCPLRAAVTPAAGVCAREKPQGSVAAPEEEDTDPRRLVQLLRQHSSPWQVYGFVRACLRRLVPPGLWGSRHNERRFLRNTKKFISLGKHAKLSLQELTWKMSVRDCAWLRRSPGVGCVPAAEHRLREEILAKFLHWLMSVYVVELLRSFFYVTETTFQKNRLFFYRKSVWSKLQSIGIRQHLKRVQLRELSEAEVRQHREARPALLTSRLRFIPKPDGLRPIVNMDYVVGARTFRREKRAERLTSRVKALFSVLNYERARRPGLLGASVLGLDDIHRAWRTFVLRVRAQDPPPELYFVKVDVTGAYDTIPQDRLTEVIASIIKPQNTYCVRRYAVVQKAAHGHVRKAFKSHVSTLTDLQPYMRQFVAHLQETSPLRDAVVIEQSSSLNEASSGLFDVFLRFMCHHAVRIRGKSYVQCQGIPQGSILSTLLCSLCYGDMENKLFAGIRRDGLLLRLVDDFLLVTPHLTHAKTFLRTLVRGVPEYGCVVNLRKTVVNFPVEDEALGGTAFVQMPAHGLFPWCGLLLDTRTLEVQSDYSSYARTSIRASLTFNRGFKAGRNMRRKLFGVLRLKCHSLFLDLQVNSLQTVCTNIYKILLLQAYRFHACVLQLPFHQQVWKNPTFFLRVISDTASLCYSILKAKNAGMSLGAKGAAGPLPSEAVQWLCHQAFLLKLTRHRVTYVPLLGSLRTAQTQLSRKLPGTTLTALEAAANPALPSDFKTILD

Consider `CN(CCCN(Cc1ccccn1)Cc1ccccn1)CCCN1C(=O)c2ccc3c4c(ccc(c24)C1=O)C(=O)N(CCCN(C)CCCN(Cc1ccccn1)Cc1ccccn1)C3=O`, for which the result with Nucleic Acid [1], in the assay with Nucleic Acid [8], in the assay with Nucleic Acid [10] and with Nucleic Acid [14] was Active. In addition, the K was found to be 1.1 µM in the assay on Nucleic Acid [2], 0.9 µM with Nucleic Acid [6] and 2.8 µM in the assay with Nucleic Acid [9]. The Tm in the assay on Nucleic Acid [3] was determined as 66 °C. The result with Nucleic Acid [4], with Nucleic Acid [11], in the assay on Nucleic Acid [12] and with Nucleic Acid [13] was inactive. In assay [5], the half-maximal effective concentration (EC50) (commonly the midpoint of the concentration-response curve) worked out at 4 µM. Also, the shift in melting temperature (ΔTm) (commonly the change in melting temperature against a reference sample) in the assay with Nucleic Acid [7] turned out to be 12 °C; in the assay with Nucleic Acid [15] it was 13 °C; in the assay on Nucleic Acid [16] it was 1 °C; in the assay with Nucleic Acid [17], 1 °C.
